Each structure is given as a SMILES string.

The text below walks through data of patent US10077261B2, “Imidazolin-5-one derivative useful as FASN inhibitors for the treatment of cancer” (Janssen Pharmaceutica NV, priority 2012, dated 2018).

Test [1] concerns the target T1, hFASN enzyme (full length) (Homo sapiens, UniProt P49327).
T1 construct: 10 μL hFASN enzyme (full length, 300 ng, purified in house); made in house
The test is described as follows: Fatty Acid Synthase (FASN) inhibition scintillation proximity assay. Format: biochemical. As to conditions: for inhibition at 10 µM: read-out: Human FASN % inhibition @ 10 μM, 10 μM test compound; for IC50: read-out: Human FASN pIC50 (converted). The essentials: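 Proximity read-out: hydrophobic ^3H-palmitate formed from ^3H-acetyl-CoA and malonyl-CoA binds streptavidin imaging beads, imaged at 610±20 nm at least 24 h after stopping. Enzyme was in-house purified full-length hFASN, 300 ng, in pH 7.5 phosphate/DTT buffer; compound series 30 μM down to 0.01 μM, normalized to controls, 4-parameter fit.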

The subject of test [2] is A2780 ovarian cells. The test is described as follows: A2780 ovarian cell proliferation assay in lipid reduced medium, with palmitate (MTT). As to conditions: Homo sapiens, A2780, 96 h; read-out: pIC50 A2780 Ovarian Cell, With Palmitate (converted). Type of test: cell-based. The essentials:
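In this palmitate-supplemented format, compound dilutions (30 μM down to 0.01 μM) are added to cells in lipid-reduced serum with 25 μM palmitate, 0.2% fatty-acid-free BSA and 0.25% ethanol. After four days (96 h) MTT absorbance at 544 nm is recorded and fitted by minimum sum of squares.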

For test [3], the system named is A2780 ovarian cells. The test is described as follows: A2780 ovarian cell proliferation assay in lipid reduced medium, without palmitate (MTT). Format: cell-based. As to conditions: Homo sapiens, A2780, 96 h; read-out: pIC50 A2780 Ovarian Cell, Without Palmitate (converted).
Test [4] has as its target Fatty Acid Synthase Keto-reductase Domain (FASN KR) (Homo sapiens, UniProt P49327). The test is described as follows: Fatty Acid Synthase keto-reductase domain (FASN KR) inhibition, NADPH oxidation at 340 nm.
Procedure: After 20 minutes incubation at room temperature the plate was measured again (T2).
The decrease in absorbance was calculated as (Absorbance before incubation T1)−(Absorbance following incubation T2).
A plot of Controlmin versus test compound concentration was fitted to a 4-parameter logistic curve using a non-linear least squares regression method.

T1 sequence (P49327 whole entry): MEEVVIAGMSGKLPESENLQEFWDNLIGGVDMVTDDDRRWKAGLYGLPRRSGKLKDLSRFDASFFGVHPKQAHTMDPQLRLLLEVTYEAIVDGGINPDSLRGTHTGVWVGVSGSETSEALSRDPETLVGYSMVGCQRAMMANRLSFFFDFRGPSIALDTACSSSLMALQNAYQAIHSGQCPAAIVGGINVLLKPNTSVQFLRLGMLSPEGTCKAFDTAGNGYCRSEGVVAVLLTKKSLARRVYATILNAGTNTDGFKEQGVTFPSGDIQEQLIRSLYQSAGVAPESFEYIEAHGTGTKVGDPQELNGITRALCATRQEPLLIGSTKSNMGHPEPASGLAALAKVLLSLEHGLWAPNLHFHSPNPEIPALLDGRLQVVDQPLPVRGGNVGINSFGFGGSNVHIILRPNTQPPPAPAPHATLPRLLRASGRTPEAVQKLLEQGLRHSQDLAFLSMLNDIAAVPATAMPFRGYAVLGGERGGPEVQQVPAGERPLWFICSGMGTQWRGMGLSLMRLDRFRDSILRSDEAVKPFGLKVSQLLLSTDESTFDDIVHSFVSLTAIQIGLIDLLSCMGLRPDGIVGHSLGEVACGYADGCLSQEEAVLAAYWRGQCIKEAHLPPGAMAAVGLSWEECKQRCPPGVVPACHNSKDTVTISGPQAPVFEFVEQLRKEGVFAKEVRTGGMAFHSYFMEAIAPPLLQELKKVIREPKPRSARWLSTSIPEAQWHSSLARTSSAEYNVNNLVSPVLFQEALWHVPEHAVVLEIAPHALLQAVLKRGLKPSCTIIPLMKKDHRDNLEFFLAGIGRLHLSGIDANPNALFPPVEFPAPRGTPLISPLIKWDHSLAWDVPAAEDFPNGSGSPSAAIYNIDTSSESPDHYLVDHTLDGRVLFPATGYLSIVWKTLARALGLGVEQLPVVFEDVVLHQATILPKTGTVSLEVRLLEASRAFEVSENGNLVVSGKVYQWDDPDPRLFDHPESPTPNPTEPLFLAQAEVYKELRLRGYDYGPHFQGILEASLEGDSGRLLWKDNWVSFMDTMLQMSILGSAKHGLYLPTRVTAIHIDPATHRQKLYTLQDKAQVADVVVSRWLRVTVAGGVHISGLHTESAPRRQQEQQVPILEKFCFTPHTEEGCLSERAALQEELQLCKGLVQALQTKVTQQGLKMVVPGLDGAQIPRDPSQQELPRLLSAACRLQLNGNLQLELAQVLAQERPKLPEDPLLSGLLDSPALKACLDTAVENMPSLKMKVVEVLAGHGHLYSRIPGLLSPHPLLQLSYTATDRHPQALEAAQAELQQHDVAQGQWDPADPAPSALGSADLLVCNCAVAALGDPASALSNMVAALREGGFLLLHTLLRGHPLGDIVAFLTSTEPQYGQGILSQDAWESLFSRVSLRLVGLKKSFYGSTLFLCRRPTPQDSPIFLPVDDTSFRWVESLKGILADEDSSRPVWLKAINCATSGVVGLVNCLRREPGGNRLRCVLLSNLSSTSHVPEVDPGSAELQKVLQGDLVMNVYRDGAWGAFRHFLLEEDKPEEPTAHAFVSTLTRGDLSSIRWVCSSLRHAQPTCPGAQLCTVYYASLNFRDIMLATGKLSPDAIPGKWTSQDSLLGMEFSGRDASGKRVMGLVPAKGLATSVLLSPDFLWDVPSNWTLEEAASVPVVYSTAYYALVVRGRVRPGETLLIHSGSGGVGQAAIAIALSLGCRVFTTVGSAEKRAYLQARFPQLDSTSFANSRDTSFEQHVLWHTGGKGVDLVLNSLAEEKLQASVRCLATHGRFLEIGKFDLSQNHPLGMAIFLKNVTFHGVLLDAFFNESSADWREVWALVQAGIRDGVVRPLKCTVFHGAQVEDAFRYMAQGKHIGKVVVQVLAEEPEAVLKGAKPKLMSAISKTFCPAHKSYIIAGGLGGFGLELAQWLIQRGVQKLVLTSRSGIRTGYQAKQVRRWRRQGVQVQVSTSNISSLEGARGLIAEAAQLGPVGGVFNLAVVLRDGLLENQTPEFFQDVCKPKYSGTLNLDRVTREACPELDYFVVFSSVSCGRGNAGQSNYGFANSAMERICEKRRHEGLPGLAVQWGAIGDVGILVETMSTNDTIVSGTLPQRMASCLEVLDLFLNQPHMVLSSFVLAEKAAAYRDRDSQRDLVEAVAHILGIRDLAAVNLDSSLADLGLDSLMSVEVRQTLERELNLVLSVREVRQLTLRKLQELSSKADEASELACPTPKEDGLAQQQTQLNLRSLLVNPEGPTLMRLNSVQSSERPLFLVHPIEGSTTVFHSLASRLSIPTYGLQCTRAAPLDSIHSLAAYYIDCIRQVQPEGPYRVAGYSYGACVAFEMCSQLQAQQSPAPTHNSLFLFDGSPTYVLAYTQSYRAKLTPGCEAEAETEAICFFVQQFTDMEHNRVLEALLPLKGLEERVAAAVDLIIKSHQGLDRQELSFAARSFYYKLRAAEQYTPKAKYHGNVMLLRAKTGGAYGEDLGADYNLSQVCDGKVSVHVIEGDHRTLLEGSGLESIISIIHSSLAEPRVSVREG
Fatty Acid Synthase Keto-reductase Domain (FASN KR), sequence (P49327 whole entry, the tested form may be a part): as the sequence (P49327 whole entry) above

Take `N#Cc1ccc(-c2ccc(C3=NC4(CC4)C(=O)N3C[C@@H]3CCN(C(=O)C4CC4)C3)cc2)cc1` [compound 48, 4′-(6-{[(3R)-1-(Cyclopropylcarbonyl)pyrrolidin-3-yl]methyl}-7-oxo-4,6-diazaspiro[2.4]hept-4-en-5-yl)biphenyl-4-carbonitrile]: the inhibition at 10 µM in test [1] stood at 108%. In addition, the IC50 was 97.7 nM in test [1], > 10000 nM in test [2], 182 nM in test [3] and 282 nM in test [4].
The matching figures for `O=C(C1CC1)N1CC(CN2C(=O)C3(CC3)N=C2c2ccc(-c3ccc4[nH]ncc4c3)cc2)C1` [compound 51, 6-{[1-(Cyclopropylcarbonyl)azetidin-3-yl]methyl}-5-[4-(1H-indazol-5-yl)phenyl]-4,6-diazaspiro[2.4]hept-4-en-7-one]: 102%, 79.4 nM, > 10000 nM, 123 nM and 162 nM.
Taken in the same sequence, the figures for `O=C(C1CC1)N1CC(CN2C(=O)C3(CC3)N=C2c2ccc(-c3ccc4ocnc4c3)cc2)C1` [compound 52, 5-[4-(1,3-Benzoxazol-5-yl)phenyl]-6-{[1-(cyclopropylcarbonyl)azetidin-3-yl]methyl}-4,6-diazaspiro[2.4]hept-4-en-7-one] were 89.9%, 759 nM, > 10000 nM, 1860 nM and 1780 nM.
With `Cn1cc(-c2ccc(-c3ccc(C4=NC5(CC5)C(=O)N4CC4CCN(C(=O)C5CC5)CC4)cc3)cc2)cn1` [compound 56, 6-{[1-(Cyclopropylcarbonyl)piperidin-4-yl]methyl}-5-[4′-(1-methyl-1H-p;yrazol-4-yl)biphenyl-4-yl]-4,6-diazaspiro[2.4]hept-4-en-7-one], the inhibition at 10 µM in test [1] was 89.2%. Further, the IC50 in test [1] is 407 nM; in test [2], 6030 nM; in test [3], 1580 nM; in test [4] it was 1380 nM.
Taken in the same sequence, the figures for `O=C(C1CC1)N1CCC(CN2C(=O)C3(CC3)N=C2c2ccc(-c3ccc4scnc4c3)cc2)CC1` [compound 57, 5-[4-(1,3-Benzothiazol-5-yl)phenyl]-6-{[1-(cyclopropylcarbonyl)piperidin-4-yl]methyl}-4,6-diazaspiro[2.4]hept-4-en-7-one] were 88.1%, 759 nM, > 10000 nM, 2510 nM and 1700 nM.
Taken in the same sequence, the figures for `O=C(C1CC1)N1CC(CN2C(=O)C3(CC3)N=C2c2ccc(-c3ccc(-c4cccnc4)cc3)cc2)C1` [compound 60, 6-{[1-(Cyclopropylcarbonyl)azetidin-3-yl]methyl}-5-(4′-pyridin-3-ylbiphenyl-4-yl)-4,6-diazaspiro[2.4]hept-4-en-7-one] were 99.4%, 93.3 nM, > 10000 nM, 263 nM and 288 nM.
Taken in the same sequence, the figures for `O=C(C1CC1)N1CC[C@@H](CN2C(=O)C3(CCN(Cc4ccccc4)CC3)N=C2c2ccc(-c3ccc4[nH]ccc4c3)cc2)C1` [compound 63, (R)-2-(4-(1H-Indol-5-yl)phenyl)-8-benzyl-3-((1-(cyclopropanecarbonyl)pyrrolidin-3-yl)methyl)-1,3,8-triazaspiro[4.5]dec-1-en-4-one] were 115%, 74.1 nM, > 10000 nM, 75.9 nM and 85.1 nM.
For `O=C(C1CC1)N1CC[C@@H](CN2C(=O)C3(CCCC3)N=C2c2ccc(-c3cccc4ncccc34)cc2)C1` [compound 66, 3-{[(3R)-1-(Cyclopropylcarbonyl)pyrrolidin-3-yl]methyl}-2-(4-quinolin-5-ylphenyl)-1,3-diazaspiro[4.4]non-1-en-4-one], in test [1], the inhibition at 10 µM stood at 106%. Moreover, the IC50 in test [1] was 74.1 nM; in test [2], > 10000 nM; in test [3], 1100 nM; in test [4] it was 282 nM.
The matching figures for `O=C(C1CC1)N1CC[C@@H](CN2C(=O)C3(CCCC3)N=C2c2ccc(-c3cccc4cnccc34)cc2)C1` [compound 67, 3-{[(3R)-1-(Cyclopropylcarbonyl)pyrrolidin-3-yl]methyl}-2-(4-isoquinolin-5-ylphenyl)-1,3-diazaspiro[4.4]non-1-en-4-one]: 100%, 282 nM, > 10000 nM, 1620 nM and 1550 nM.
Take `O=C(C1CC1)N1CC[C@@H](CN2C(=O)C3(CCCC3)N=C2c2ccc(-c3cccc4[nH]ccc34)cc2)C1` [compound 68, 3-{[(3R)-1-(Cyclopropylcarbonyl)pyrrolidin-3-yl]methyl}-2-[4-(1H-indol-4-yl)phenyl]-1,3-diazaspiro[4.4]non-1-en-4-one]: the inhibition at 10 µM in test [1] turned out to be 107%. Moreover, the IC50 in test [1] was 63.1 nM; in test [2], > 10000 nM; in test [3], 339 nM; in test [4], 162 nM.
The matching figures for `O=C(C1CC1)N1CC[C@@H](CN2C(=O)C3(CCCC3)N=C2c2ccc(-c3ccc4ccncc4c3)cc2)C1` [compound 69, 3-{[(3R)-1-(Cyclopropylcarbonyl)pyrrolidin-3-yl]methyl}-2-(4-isoquinolin-7-ylphenyl)-1,3-diazaspiro[4.4]non-1-en-4-one]: 100%, 224 nM, > 10000 nM, 1150 nM and 851 nM.
The matching figures for `O=C(C1CC1)N1CC[C@@H](CN2C(=O)C3(CCCC3)N=C2c2ccc(-c3cccc(-c4cc[nH]n4)c3)cc2)C1` [compound 70, 3-{[(3R)-1-(Cyclopropylcarbonyl)pyrrrolidin-3-yl]methyl}-2-[3′-(1H-pyrazol-3-yl)biphenyl-4-yl]-1,3-diazaspiro[4.4]non-1-en-4-one]: 92.5%, 537 nM, > 10000 nM, ~2400 nM and 1350 nM.
Taken in the same sequence, the figures for `Cc1cc(-c2ccc3occc3c2)ccc1C1=NC2(CCCC2)C(=O)N1C[C@@H]1CCN(C(=O)C2CC2)C1` [compound 72, 2-[4-(1-Benzofuran-5-yl)-2-methylphenyl]-3-{[(3R)-1-(cyclopropylcarbonyl)pyrrolidin-3-yl]methyl}-1,3-diazaspiro[4.4]non-1-en-4-one] were 106%, 47.9 nM, > 10000 nM, 1380 nM and 174 nM.
Take `Cc1cc(-c2ccc3[nH]ccc3c2)ccc1C1=NC2(CCCC2)C(=O)N1C[C@@H]1CCN(C(=O)C2CC2)C1` [compound 73, 3-{[(3R)-1-(Cyclopropylcarbonyl)pyrrolidin-3-yl]methyl}-2-[4-(1H-indol-5-yl)-2-methylphenyl]-1,3-diazaspiro[4.4]non-1-en-4-one]: in test [1], the inhibition at 10 µM was determined as 111%. In addition, the IC50 is 33.1 nM in test [1], > 10000 nM in test [2], ~28.8 nM in test [3] and 64.6 nM in test [4].
The matching figures for `Cc1cc(-c2ccc3cnccc3c2)ccc1C1=NC2(CCCC2)C(=O)N1C[C@@H]1CCN(C(=O)C2CC2)C1` [compound 74, 3-{[(3R)-1-(cyclopropylcarbonyl)pyrrolidin-3-yl]methyl}-2-(4-isoquinolin-6-yl-2-methylphenyl)-1,3-diazaspiro[4.4]non-1-en-4-one]: 114%, 22.4 nM, > 10000 nM, 8.71 nM and 60.3 nM.
Taken in the same sequence, the figures for `O=C(C1CC1)N1CCC(CN2C(=O)C3(CCCC3)N=C2c2ccc(-c3ccc4occc4c3)cc2)CC1` [compound 75, 1-[4-(1-Benzofuran-5-yl)phenyl]-3-{[1-(cyclopropylcarbonyl)piperidin-4-yl]methyl}-1,3-diazaspiro[4.4]non-1-en-4-one] were 92.7%, 513 nM, > 10000 nM, 5890 nM and 2140 nM.
Taken in the same sequence, the figures for `O=C(C1CC1)N1CCC(CN2C(=O)C3(CCCC3)N=C2c2ccc(-c3ccc4[nH]ccc4c3)cc2)CC1` [compound 76, 3-{[1-(Cyclopropylcarbonyl)piperidin-4-yl]methyl}-2-[4-(1H-indol-5-yl)phenyl]-1,3-diazaspiro[4.4]non-1-en-4-one] were 99.2%, 129 nM, > 10000 nM, 513 nM and 794 nM.
Turning to `O=C(C1CC1)N1CCC(CN2C(=O)C3(CCCC3)N=C2c2ccc(-c3ccc4cnccc4c3)cc2)CC1` [compound 77, 3-{[1-(Cyclopropylcarbonyl)piperidin-4-yl]methyl}-2-(4-isoquinolin-6-ylphenyl)-1,3-diazaspiro[4.4]non-1-en-4-one], the inhibition at 10 µM in test [1] was found to be 103%. In addition, the IC50 in test [1] was 174 nM; in test [2], > 10000 nM; in test [3] it was 661 nM; in test [4], 871 nM.
